Reference: patent EP2135612A1, “Use of ATP in the preparation of a medicament for treating, alleviating and/or enhancing survival of pre-terminal cancer patients” (Universiteit van Maastricht, priority 2008, dated 2009)

Key:
[1] = tested on: patients with non-small-cell lung cancer (NSCLC); conditions: cited from earlier work
TNF-α = conditions: ex vivo stimulated whole blood; via P2Y11 receptor; cited from earlier work
IL-10 = conditions: ex vivo stimulated whole blood; cited from earlier work
[2] = tested on: pre-terminal cancer patients; assay: Randomized clinical trial: nutritional status (anthropometric measurements, nutritional intake) during the 8-week ATP intervention; assay type: in vivo
Method: (§1) Ninety-nine pre-terminal cancer patients (estimated life expectancy 1-6 mo) with mixed tumor types were randomly allocated to receive either ATP i.v. weekly (8 h/wk, max. 50 µg/kg.min) for 8 weeks, or no ATP (control group). Nutritional status parameters were assessed until 8 weeks, and analyzed by repeated-measures analysis of covariance. Cox proportional hazards models were fitted to assess the effect of ATP on short term (0-8 weeks) and long term (0-6 months) survival.
(§2) After baseline measurements, patients were stratified for center, tumor type, and weight loss (≤5% vs. >5% over past 6 months), and then randomly assigned to receive either usual care, standard nutritional advice and ATP (ATP group), or usual care and standard nutritional advice alone (control) group), using computer-generated random numbers with permutation blocks of four. In both groups, nutritional status parameters and co-interventions were assessed until 8 weeks.
(§3) Patients allocated to the ATP group received weekly ATP infusions during 8-10 hours over a period of 8 weeks (21). The first ATP infusion was offered under medical supervision at the day care center of the participating hospitals. ATP infusions were started at a dose rate of 20 µg/kg·min and increased in steps of 10 µg/kg·min per 10 minutes, until reaching a maximum dose rate of 50 µg/kg·min, or the maximally tolerated dose (MTD) if this was lower, in case of side effects. Thereafter, ATP was Infused at a continuous rate. Subsequent infusions were given at MTD in the patient's home.
Body height was determined using a flexible measuring tape. Body weight was measured without shoes, using an electronic scale (Soehnle 7407 Translucia, Germany). Triceps skin fold thickness was measured in triplicate at the dominant arm, with a Holtain® skin fold caliper (CMS weighing equipment LTD, London UK), and the median used for further calculations. Mid-upper arm circumference was measured in duplicate at the dominant side with a flexible measuring tape, and the mean value was used for further calculations.
In order to exclude inter-observer variability, longitudinal measurements in one patient were performed by one observer. Nutritional intake was assessed by a 3-day food diary, including meal preparation details, and checked by an experienced dietician. Intake of energy and protein was calculated using the Dutch Food Composition Table 2001 (NEVO, The Hague, The Netherlands), by the Software Program Komeet (version 4.0.58; BaS Nutrition Software, Arnhem, The Netherlands).
Data were doubly entered and analyzed according to the intention-to-treat principle. Curves were fitted to describe the time course of nutritional status parameters, and differences over time between the two groups appraised by repeated measurement analysis of covariance, using SAS Proc Mixed version 9.1 (SAS Institute Inc., Cary, NC, USA). Independent variables were the treatment indicator variable, the baseline measurement, measurement time, and the interaction between time and treatment. Statistical significance of treatment effects was assessed by testing the interaction between time and treatment. For weight analyses, patients with oedema and/or ascites were excluded. Because of the favorable previous results in patients with lung cancer (17), all analyses were repeated for this subgroup separately.

[3] = tested on: stage IIIB/IV NSCLC patients; conditions: 15 chemotherapy-naïve stage IIIB/IV NSCLC patients; one to four 96-hour cycles i.v. ATP 50-65 µg/kg.min at 4-week intervals; cited from earlier work
[4] = tested on: pre-terminal cancer patients; assay: Randomized clinical trial: survival (Cox regression, Kaplan-Meier); assay type: in vivo
Method: as §1, §2, §3
Cox regression models were fitted including interaction terms between treatment and dummy variables for short term (i.e. 0-8 wks) and long term survival (i.e. 0-6 mo; dummy variables for 0-8 wks and 8 wks-6 mo were combined into a single dummy variable (0-6 mo) since Cox proportional hazards assumption was tested and not rejected). Median survival time was determined by extrapolation from confounder-adjusted Kaplan Meier plots. Because of previously shown survival benefit of ATP treatment in weight-losing stage IIIB NSCLC patients (18), we also performed stratified analyses in weight-stable and weight-losing patients separately defined as ≤5% or >5% weight loss over the past 6 months (22).
All models were appropriately adjusted for confounders. Two-tailed p-values <0.05 were considered statistically significant.

In the case of `Nc1ncnc2c1ncn2[C@@H]1O[C@H](COP(=O)(O)OP(=O)(O)OP(=O)(O)O)[C@@H](O)[C@H]1O` [ATP, adenosine 5'-triphosphate], the “effects on nutritional intake, body weight, fat and muscle mass” value ([1]; ATP infusions over 30 h at 2- to 4-week intervals, max. 75 µg/kg.min) is listed as “marked beneficial effects”, the survival ([1]; weight-losing patients with stage IIIB NSCLC) is listed as “highly significant survival benefit” and the TNF-α release (TNF-α) is listed as “inhibited”. The IL-10 release (IL-10) was “enhanced”, the “Weight, change per 8 weeks, ATP group Estimate” value ([2]; ATP i.v. weekly 8-10 h, max. 50 µg/kg·min, 8 weeks, n=26, oedema/ascites excluded) was -2.62 kg and the “Triceps skin fold thickness, change per 8 weeks, ATP group Estimate” value ([2]; ATP i.v. weekly, max. 50 µg/kg·min, 8 weeks, n=48) was -1.84 mm. For the same compound, the “Mid-upper arm circumference, change per 8 weeks, ATP group Estimate” value ([2]; ATP i.v. weekly, max. 50 µg/kg·min, 8 weeks, n=49) was -2.24 cm, the “intake of energy and protein, difference between the two groups” value ([2]; ATP vs. control, 8 weeks, 3-day food diary) was “No statistically significant difference” and the “Triceps skin fold thickness, Between group difference Estimate per 8 weeks” value ([2]; ATP vs. control, p=0.009) was 1.76 mm. For the same compound, the stable disease [3] was 8 patients, the “patients still alive on the census date” value ([4]; census date 10 September 2007, ATP group n=51) was 6 patients and the “HR, survival” value ([4]; lung cancer patients with >5% overall weight loss, p=0.052) was 0.21. The “HR, survival 0-8 weeks” value ([4]; patients with lung cancer (n=44)) was 0.17, the “HR, survival 0-6 months” value ([4]; patients with lung cancer (n=44), p=0.025) was 0.35 and the “HR of ATP vs. control, short-term (0-8 weeks) survival” value ([4]; total group (ATP n=51; control n=48), p=0.037) was 0.40. The Median survival ([4]; total group, ATP group, extrapolated from confounder-adjusted Kaplan Meier plots) was 150 days, the “HR, long term survival (0-6 months)” value ([4]; total group, p=0.26, not significant) was 0.71 and the effect on survival ([4]; weight-losing patients (>5% weight loss over past 6 months)) was “No significant effect”. For the same compound, the “HR, survival during the 8-week intervention” value ([4]; weight-stable patients (≤5% weight loss over past 6 months; ATP n=33; control n=31), p=0.001) was 0.20 and the “HR, long term survival (0-6 months)” value ([4]; weight-stable patients, p=0.014) was 0.40.
